Read-outs that look alike come from different tables or passages of the source.

The test system of one data set is myocardial infarction. The conditions noted are these: large clinical studies; cited from earlier work.
Data set [1] relates to platelets. The conditions noted are these: cited from earlier work.
In data set [2] the test system is cardiovascular disease mortality. To be noted: increase in (endogenous) DHEA-S level of 100 μg/dL; adjusted for other risk factors; p <0.05; cited from earlier work.
For data set [3], the system named is platelets. Nature of the data set: In vitro turbidimetric arachidonic acid induced platelet aggregation in platelet rich plasma. The format is cell-based, human. The source says:
(§1) Referring now to the drawings and, more particularly to FIG. 1, two sample aggregometer tracings are shown which help illustrate the methods used by the inventors to analyze turbidimetric data. Aggregometers are well known research tools and the aggregometer used in the experiments discussed below was a Sienco dual chamber platelet aggregometer. A blood sample which is to be analyzed is drawn from volunteer donors into a 1/8 volume of acid-citrate-dextrose (an anticoagulant used to keep platelets from aggregation during preparative stages). For the in vitro experiments discussed below, the volunteer donors had not taken any medication for ten days prior to submitting the blood sample. The blood is then centrifuged at low speed to sediment red and white blood cells, leaving a fraction enriched in platelets called platelet-rich plasma (PRP). The platelet count was determined electronically using a Coulter counter The final concentration of platelets for a test sample was adjusted to 250,000 platelets/μL fluid by the addition of platelet-poor plasma.
(§2) The aggregometer acts essentially like a spectrophotometer to measure the turbidity of the platelet suspension as a function of the change in light transmission recorded over time. Prior to making turbidimetric measurements, the test samples were heated to 37° C. (body temperature) and stirred at a constant rate. Inhibitors and/or agonists are added to the test sample in very small quantities so as to minimize the dilutional effect. An important object of the present invention was showing that DHEA and DHEA-S are inhibitors of platelet aggregation. Arachidonic acid, available from Biodata Corp of Hatboro, Pennsylvania, is a well known agonist of platelets (i.e., the addition of arachidonic acid to platelets causes aggregation). In the experiments, DHEA and DHEA-S were added to the test sample prior to adding the arachidonic acid so that the platelets could be mixed with the inhibitor before any aggregation initiation caused by the arachidonic acid agonist occurred. Typically, 0.2-0.4 mM arachidonic acid was used to start platelet aggregation.
The aggregometer was calibrated such that the test samples, which contained 250,000 platelets/μl fluid, allowed 0% light transmission while Platelet Poor Plasma, which is essentially devoid of platelets, allowed 100% light transmission. […] The time to the nadir in the aggregometer tracing is called the "LAG" time. After the LAG time has passed, the platelets undergo a rapid phase of aggregation.
The overall rate of aggregation is determined in part by the LAG time and in part by the rate of the rapid aggregation phase. While the LAG time can easily be determined from the turbidimetric spectra, the rate of rapid aggregation phase is technically difficult to measure. […] Therefore, the experiments discussed below have primarily utilized the T1/2MAX measurement to quantitatively analyze the affect of DHEA and DHEA-S as platelet aggregation inhibitors.
DHEA-S is available from the Sigma Chemical Company in powder form. In the in vitro experiments, blood samples were taken from several young healthy donors taking no medications. Platelet rich plasma was prepared as described above for each test sample and the concentration of platelets in the test samples was adjusted to 250,000 platelets/μl fluid. Aggregation of the platelets in the test samples was initiated with 0.2 to 0.4 […] of arachidonic acid (there was a variability in the amount of arachidonic acid used among donors; however, the amount used was near the minimum that would consistently initiate aggregation). In all aggregation experiments 0.3 cc of platelet rich plasma was used and the test sample volume placed in the aggregometer ranged between 10 μl to 30 μl.
In the first in vitro experiment, different concentrations of DHEA-S were added to test samples and the rate of aggregation was monitored after the addition of arachidonic acid. […]

Data set [4] has as its system Thromboxane A2 (TxA2) synthesis, measured as Thromboxane B2 (TxB2). Nature of the data set: Thromboxane production (TxB2 RIA) in platelet rich plasma after arachidonic acid. To be noted: for TxB2 produced: approximately three minutes incubation. The format is cell-based, human. An excerpt:
As discussed above, activation of platelets by arachidonic acid typically results in the generation of Thromboxane A2 (TxA2) The extent of TxA2 generated can be measured by radioimmunoassay (RIA) of its stable breakdown product Thromboxane B2 (TxB2) (see, JW Aiken, "Arachidonic Acid Metabolism and the Cardiovascular System" in Platelets and Prostaglandins in Cardiovascular Disease, J Mehta, P Mehta eds. Futura Publishing Co., Mt. Kisco, NY 1981). […] The platelet aggregation reaction was terminated at maximal aggregation or at four minutes, which ever occurred […], by the addition of 10 μM Indomethacin and 5.0 mM ethylenediaminetetraacetic acid (EDTA). Indomethacin and EDTA are commercially available reagents and were obtained from the Sigma Chemical Company. After adding the Indomethacin and EDTA reagents, the cuvettes containing the test sample were immediately placed on ice to cool. The test samples were then spun at a high speed in an Epindorf, Model 5415 micro-centrifuge, available from Brinkman Instruments, to sediment the platelets. Afterwards, plasma was removed from each sample. The TXB2 content was then assayed using commercial RIA kits available from Advanced Magnetics, Inc. of Massachussetts.

The next data set has as its system aortic fatty streaks. To be noted: 0.5% cholesterol and 0.5% DHEA diet; two months; cited from earlier work.
In another data set the test system is blood platelets. Nature of the data set: Arachidonic acid induced platelet aggregation (turbidimetric) in volunteers taking DHEA. The format is in vivo, human.
Excerpt: as §1, §2
The aggregometer was calibrated such that the test samples, which contained 250,000 platelets/μl fluid, allowed 0% light transmission while Platelet Poor Plasma, which is essentially devoid of platelets, allowed 100% light transmission. […]
The overall rate of aggregation is determined in part by the LAG time and in part by the rate of the rapid aggregation phase. While the LAG time can easily be determined from the turbidimetric spectra, the rate of rapid aggregation phase is technically difficult to measure. […] Therefore, the experiments discussed below have primarily utilized the T1/2MAX measurement to quantitatively analyze the affect of DHEA and DHEA-S as platelet aggregation inhibitors. […]

In data set [5] the test system is oxidant injury in isolated rabbit lungs. The conditions noted are these: cited from earlier work.
For another data set, the system named is atherosclerotic plaque. The conditions noted are these: 2% cholesterol diet, balloon abrasion, 0.5% DHEA, cited from earlier work.
Data set [6] concerns glucose-6-phosphate dehydrogenase. The conditions noted are these: cited from earlier work.
Data set [7] can be described thus: Serum DHEA and DHEA-S levels by radio-immunoassay (RIA), oral DHEA in normal male volunteers. The format is in vivo. The conditions noted are these: human, 300 mg/day, DHEA group, 300 mg per day orally (100 mg three times a day), second week, read-out: mean serum DHEA level. How it is done:
In vivo experimentation has been conducted with DHEA using a test group of ten male human being subjects. The in vivo experimentation comprised a double blind placebo controlled trial where ten normal male volunteers whose ages ranged between 22 and 37 years old were randomly divided into two five membered groups where the average age for each group was 25 years. In the in vivo experiment, the DHEA group received 300 mg of DHEA per day in the form of 100 mg capsules taken orally three times a day. The placebo group took placebo capsules which looked identical to the capsules containing DHEA three times a day. The DHEA and placebo capsules were prepared by the investigational pharmacy at the Medical College of Virginia and the code identifying which patients took DHEA and which took placebo was maintained by the pharmacy until the study was completed such that neither the patients nor the investigators were aware of who was taking DHEA or placebo. Each of the participants in the trial were told not to alter their lifestyles for the duration of the study and at the conclusion of the experiment each participant said that they had not done so. […]
Serum DHEA and DHEA-S levels for the patients was determined before the experiment began and at several later times during the experiment. […]

The conditions of data set [8]: human patients; cited from earlier work.
The subject of a further data set is intracellular sulfatases. The conditions noted are these: through the action of intracellular sulfatases; cited from earlier work.
Data set [9] deals with platelets. The conditions noted are these: cited from earlier work. This is another data set of the same source.

For the compound `CC(=O)Oc1ccccc1C(=O)O` [aspirin], the “incidence of myocardial infarction” value in the data set on myocardial infarction is “reduce the incidence of myocardial infarction”. Besides, in the data set on platelets [1], the initial platelet adhesion entry is “does not inhibit initial platelet adhesion” and the “platelet's role in atherogenesis” value is “does not appear to have an affect”.
Consider `CC12CCC3C(CC=C4CC(OS(=O)(=O)O)CCC43C)C1CCC2=O` (stereo not drawn) [DHEA-S, dehydroepiandrosterone-sulfate], for which the “reduction in mortality from cardiovascular disease” value in data set [2] is on record as 48%. For the same compound, in the data set on platelets [3] (3.3 μM DHEA-S (FIG. 5)), the “T1/2MAX and LAG vs pre-incubation time” value was “the greater the increase in T1/2MAX and LAG times”. For the same compound, the “T1/2MAX and LAG vs baseline” value in the data set on platelets [3] (3.3 μM DHEA-S, 0 time pre-incubation (FIG. 5)) is “did increase the T1/2MAX and LAG from baseline”. Besides, the “aggregation after 5.0 minute pre-incubation” value in the data set with platelets [3] (3.3 μM DHEA-S, 5.0 minutes, in most cases (FIG. 6)) is listed as “complete inhibition of aggregation”. Moreover, the “time for T1/2MAX and LAG” value in the data set with platelets [3] (10.0 μM DHEA-S, three minutes incubation) is “not determinable”. The “platelet aggregation response to increasing DHEA-S concentration” value with platelets [3] (incubated three minutes before arachidonic acid, most test samples) was “dose dependent response”. For the same compound, the “T1/2MAX and LAG times with increasing concentrations” value in the data set with platelets [3] (three minutes incubation (FIG. 4)) is given as “increase with increasing concentrations of DHEA-S”. Further, in data set [4] (treatment of blood with DHEA-S), the thromboxane production result is “reduce thromboxane production”.
Take `C[C@]12CC[C@H](O)CC1=CC[C@@H]1[C@@H]2CC[C@]2(C)C(=O)CC[C@@H]12` [DHEA, dehydroepiandrosterone]: in the data set with aortic fatty streaks, the “reduction in fatty streak formation, chemical analysis” value was 30% and the “reduction in fatty streak formation, planimetry of the lesions” value is reported as 40%. In the data set on blood platelets (300 mg DHEA per day orally), the “aggregation response, fifth DHEA patient” value is “no change”; the “arachidonic acid induced platelet aggregation, one of the four responding subjects” value is recorded as “completely inhibited”; the “patients who developed a delay in the rate of aggregation or an increase in the minimal concentration of arachidonic acid required to initiate aggregation” value is reported as “four of the five patients”. The “T1/2MAX and LAG curves vs arachidonic acid concentration” value with blood platelets (one DHEA treated patient, second week vs baseline (FIG. 3)) was “shifted to the right and upward”. Moreover, in the data set on platelets [3] (3.3 μM, pre-incubation 0 to 5.0 minutes (FIG. 6)), the “platelet aggregation on pre-incubation” value is “prolong and eventually inhibit platelet aggregation”. The “thromboxane B2 production” value in [5] is listed as “unchanged”. The “lung edema and pulmonary hypertension” value in [5] (platelets pretreated with DHEA) is “augmentation of the lung edema and pulmonary hypertension”. For the same compound, in the data set on atherosclerotic plaque, the “individual reduction of plaque size vs serum level of DHEA” value is reported as “inversely proportional to the serum level of DHEA attained”. Also, in the data set on atherosclerotic plaque (vs rabbits not receiving DHEA), the “reduction in plaque size” value is on record as 50%. In [6], the “inhibition of glucose-6-phosphate dehydrogenase” value is “specific inhibitor”. Moreover, the concentration at 336 h in [7] worked out at 28.7 ± 13.9 ng/mL. Further, the TxB2 produced in [4] (3.3 μM DHEA) stood at 46.0 ± 4.0 pg/mL. This compound displayed a TxB2 produced in [4] (6.7 μM DHEA) of 27.3 ± 1.1 pg/mL. This compound gave a TxB2 produced in data set [4] (10.0 μM DHEA) of 21.8 ± 1.8 pg/mL. The “TxB2 produced vs concentration” value in [4] (increasing concentrations of DHEA (FIG. 7)) was “proportional decline in TxB2 produced”. The TxA2 synthesis entry in data set [4] (presence of added DHEA (FIG. 7)) was “net inhibition of TxA2 synthesis”. Also, in data set [8], the HDL cholesterol levels result was “without affecting HDL cholesterol levels”, the LDL cholesterol levels result is recorded as “lower LDL cholesterol levels”, the body fat mass result is given as “reduce body fat mass” and the muscle mass entry is given as “increase muscle mass”. Besides, in data set [8], the “serum apilipoprotein B levels” value is “lower serum apilipoprotein B levels” and the “tissue sensitivity to insulin” value is “not affect tissue sensitivity to insulin”. Further, in the data set with intracellular sulfatases, the “interconversion of DHEA with its sulfate ester” value is recorded as “readily interconvertible”.
As to `O=[N+]([O-])c1cc(Cl)cc([N+](=O)[O-])c1` [CDNB, 1-chloro-3,5-dinitrobenzene], in the data set on platelets [9], the “GSH content of platelets” value is given as “chemically depletes GSH”, the “HMPS pathway stimulation by GSH-depleted platelets” value is reported as “do not stimulate the HMPS pathway”, the “cytoskeletal protein polymerization of GSH-depleted platelets” value is “faster cytoskeletal protein oxidative polymerization but reversible aggregation” and the “sensitivity of GSH-depleted platelets to oxidants” value is reported as “more sensitive to oxidants”. The “aggregation of GSH-depleted platelets” value with platelets [9] (higher inducer concentrations) is listed as “aggregate normally”. For the same compound, the “aggregation of GSH-depleted platelets” value in the data set with platelets [9] (low inducer concentrations, depending on the inducer) was “increased or depressed aggregation”.
